# Columns and labels:
# HeLa = assay: MTS proliferation assay, HeLa; assay type: cell-based, human; details: 72 h incubation, read-out: MTS proliferation assay IC 50 HeLa
# Procedure, shortened: (§1)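 Absorbance at 492 nm after 3 h with MTS reagent gave proliferation. This followed 72 h compound exposure (final 0.3, 1, 3, 10 μM) at 37 °C and 7.5% CO2. Cells had been plated 24 h earlier in complete RPMI-1640 with 5% or 10% FCS.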
# MRC5 = assay: MTS proliferation assay, MRC5; assay type: cell-based; details: MRC5, 72 h incubation; read-out: MTS proliferation assay IC 50 MRC5
# Procedure, shortened: (§2)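 Antiproliferative read-out by MTS (3 h, A492) after 72 h compound exposure at final 0.3–10 μM (four concentrations). Cells were plated 24 h earlier in RPMI-1640 containing 5% or 10% FCS, cultured at 37 °C with 7.5% CO2.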
# HT1080 = assay: MTS proliferation assay, HT1080; assay type: cell-based, human; details: HT1080, 72 h incubation; read-out: MTS proliferation assay IC 50 HT1080
# Procedure, shortened: as §1
# Jily = assay: MTS proliferation assay, Jily; assay type: cell-based; details: 72 h incubation, read-out: MTS proliferation assay IC 50 Jily
# Procedure, shortened: as §2
# [1] = system: adherent cells or suspension cells; assay: Hoechst 33342 nuclear staining (fraction of apoptotic nuclei); assay type: cell-based; design: key: 0 relating to no activity; 1 relating to weak activity comprising less than 70% of the cells; score 2 relating to strong activity comprising more than 70% of the cells
# Jurkat = assay: MTS proliferation assay, Jurkat; assay type: cell-based, human; details: 72 h incubation, read-out: MTS proliferation assay IC 50 Jurkat
# Procedure, shortened: as §1
structure (smiles),measurement,setting,value
COc1ccc(C(=O)Cn2c(-c3nonc3NCCC#N)nc3ccccc32)cc1N [Example 69],IC50,HeLa,100 to 1000 nM
same,IC50,MRC5,100 to 1000 nM
same,IC50,HT1080,100 to 1000 nM
same,IC50,Jily,100 to 1000 nM
same,Hoechst 33342 nuclear staining score,"[1]; H460, conc 0.01 μm",0
same,Hoechst 33342 nuclear staining score,"[1]; H460, conc 0.1 μm",0
same,Hoechst 33342 nuclear staining score,"[1]; H460, conc 1 μm",2 (score 2 relating to strong activity comprising more than 70% of the cells)
same,Hoechst 33342 nuclear staining score,"[1]; HeLa, conc 0.01 μm",0
same,Hoechst 33342 nuclear staining score,"[1]; HeLa, conc 0.1 μm",0
same,Hoechst 33342 nuclear staining score,"[1]; HeLa, conc 1 μm",2 (score 2 relating to strong activity comprising more than 70% of the cells)
same,Hoechst 33342 nuclear staining score,"[1]; Jily, conc 0.01 μm",0
same,Hoechst 33342 nuclear staining score,"[1]; Jily, conc 0.1 μm",1 (1 relating to weak activity comprising less than 70% of the cells)
same,Hoechst 33342 nuclear staining score,"[1]; Jily, conc 1 μm",2 (score 2 relating to strong activity comprising more than 70% of the cells)
same,Hoechst 33342 nuclear staining score,"[1]; Jurkat, conc 0.01 μm",0
same,Hoechst 33342 nuclear staining score,"[1]; Jurkat, conc 0.1 μm",1 (1 relating to weak activity comprising less than 70% of the cells)
same,Hoechst 33342 nuclear staining score,"[1]; Jurkat, conc 1 μm",2 (score 2 relating to strong activity comprising more than 70% of the cells)
same,Hoechst 33342 nuclear staining score,"[1]; MRC5, conc 0.01 μm",0
same,Hoechst 33342 nuclear staining score,"[1]; MRC5, conc 0.1 μm",0
same,Hoechst 33342 nuclear staining score,"[1]; MRC5, conc 1 μm",1 (1 relating to weak activity comprising less than 70% of the cells)
same,Hoechst 33342 nuclear staining score,"[1]; PBLs, conc 0.01 μm",0
same,Hoechst 33342 nuclear staining score,"[1]; PBLs, conc 0.1 μm",0
same,Hoechst 33342 nuclear staining score,"[1]; PBLs, conc 1 μm",0
same,IC50,Jurkat,10 to 100 nM
CC(=O)Nc1ccc(C(=O)Cn2c(-c3nonc3N)nc3ccccc32)cc1[N+](=O)[O-] [Example 64],IC50,HeLa,10 to 100 nM
same,IC50,MRC5,10 to 100 nM
same,IC50,HT1080,10 to 100 nM
same,IC50,Jily,10 to 100 nM
same,Hoechst 33342 nuclear staining score,"[1]; H460, conc 0.01 μm",0
same,Hoechst 33342 nuclear staining score,"[1]; H460, conc 0.1 μm",2 (score 2 relating to strong activity comprising more than 70% of the cells)
same,Hoechst 33342 nuclear staining score,"[1]; H460, conc 1 μm",2 (score 2 relating to strong activity comprising more than 70% of the cells)
same,Hoechst 33342 nuclear staining score,"[1]; HeLa, conc 0.01 μm",0
same,Hoechst 33342 nuclear staining score,"[1]; HeLa, conc 0.1 μm",2 (score 2 relating to strong activity comprising more than 70% of the cells)
same,Hoechst 33342 nuclear staining score,"[1]; HeLa, conc 1 μm",2 (score 2 relating to strong activity comprising more than 70% of the cells)
same,Hoechst 33342 nuclear staining score,"[1]; Jily, conc 0.01 μm",2 (score 2 relating to strong activity comprising more than 70% of the cells)
same,Hoechst 33342 nuclear staining score,"[1]; Jily, conc 0.1 μm",2 (score 2 relating to strong activity comprising more than 70% of the cells)
same,Hoechst 33342 nuclear staining score,"[1]; Jily, conc 1 μm",2 (score 2 relating to strong activity comprising more than 70% of the cells)
same,Hoechst 33342 nuclear staining score,"[1]; Jurkat, conc 0.01 μm",2 (score 2 relating to strong activity comprising more than 70% of the cells)
same,Hoechst 33342 nuclear staining score,"[1]; Jurkat, conc 0.1 μm",2 (score 2 relating to strong activity comprising more than 70% of the cells)
same,Hoechst 33342 nuclear staining score,"[1]; Jurkat, conc 1 μm",2 (score 2 relating to strong activity comprising more than 70% of the cells)
same,Hoechst 33342 nuclear staining score,"[1]; MRC5, conc 0.01 μm",0
same,Hoechst 33342 nuclear staining score,"[1]; MRC5, conc 0.1 μm",1 (1 relating to weak activity comprising less than 70% of the cells)
same,Hoechst 33342 nuclear staining score,"[1]; MRC5, conc 1 μm",1 (1 relating to weak activity comprising less than 70% of the cells)
same,Hoechst 33342 nuclear staining score,"[1]; PBLs, conc 0.01 μm",0
same,Hoechst 33342 nuclear staining score,"[1]; PBLs, conc 0.1 μm",0
same,Hoechst 33342 nuclear staining score,"[1]; PBLs, conc 1 μm",0
same,IC50,Jurkat,10 to 100 nM
Nc1ccc(C(=O)Cn2c(-c3nonc3N)nc3ccccc32)cc1.O=C(O)C(=O)O [Example 62],IC50,HeLa,100 to 1000 nM
same,IC50,MRC5,10 to 100 nM
same,IC50,HT1080,10 to 100 nM
same,IC50,Jily,10 to 100 nM
same,Hoechst 33342 nuclear staining score,"[1]; H460, conc 0.01 μm",0
same,Hoechst 33342 nuclear staining score,"[1]; H460, conc 0.1 μm",2 (score 2 relating to strong activity comprising more than 70% of the cells)
same,Hoechst 33342 nuclear staining score,"[1]; H460, conc 1 μm",2 (score 2 relating to strong activity comprising more than 70% of the cells)
same,Hoechst 33342 nuclear staining score,"[1]; HeLa, conc 0.01 μm",0
same,Hoechst 33342 nuclear staining score,"[1]; HeLa, conc 0.1 μm",2 (score 2 relating to strong activity comprising more than 70% of the cells)
same,Hoechst 33342 nuclear staining score,"[1]; HeLa, conc 1 μm",2 (score 2 relating to strong activity comprising more than 70% of the cells)
same,Hoechst 33342 nuclear staining score,"[1]; Jily, conc 0.01 μm",0
same,Hoechst 33342 nuclear staining score,"[1]; Jily, conc 0.1 μm",2 (score 2 relating to strong activity comprising more than 70% of the cells)
same,Hoechst 33342 nuclear staining score,"[1]; Jily, conc 1 μm",2 (score 2 relating to strong activity comprising more than 70% of the cells)
same,Hoechst 33342 nuclear staining score,"[1]; Jurkat, conc 0.01 μm",0
same,Hoechst 33342 nuclear staining score,"[1]; Jurkat, conc 0.1 μm",2 (score 2 relating to strong activity comprising more than 70% of the cells)
same,Hoechst 33342 nuclear staining score,"[1]; Jurkat, conc 1 μm",2 (score 2 relating to strong activity comprising more than 70% of the cells)
same,Hoechst 33342 nuclear staining score,"[1]; MRC5, conc 0.01 μm",0
same,Hoechst 33342 nuclear staining score,"[1]; MRC5, conc 0.1 μm",2 (score 2 relating to strong activity comprising more than 70% of the cells)
same,Hoechst 33342 nuclear staining score,"[1]; MRC5, conc 1 μm",2 (score 2 relating to strong activity comprising more than 70% of the cells)
same,Hoechst 33342 nuclear staining score,"[1]; PBLs, conc 0.01 μm",0
same,Hoechst 33342 nuclear staining score,"[1]; PBLs, conc 0.1 μm",0
same,Hoechst 33342 nuclear staining score,"[1]; PBLs, conc 1 μm",0
same,IC50,Jurkat,10 to 100 nM
